# Source: publication PMC12643529 (ACS Infectious Diseases, 2025)
# Like-named read-outs stand apart in the source and are kept apart here.
# What was measured:
# [1] = test system: promastigote form of L. major; parameters: method as in number not given; details: promastigotes; footnote c 'From ref', ref number not given; cited from earlier work
# [2] = test system: bloodstream form of T. brucei; parameters: method as in number not given; details: footnote c 'From ref', ref number not given; cited from earlier work
# [3] = test system: Fmt6363T (human mitochondrial G-quadruplex); assay: FRET melting assay, Fmt6363T; type: binding; details: oligonucleotide 200 nM
# [4] = test system: FEbr1T (T. brucei G-quadruplex); assay: FRET melting assay, FEbr1T; type: binding; details: oligonucleotide 200 nM
# [5] = test system: F21T Na+ (human telomeric G-quadruplex, sodium buffer); type: binding; details: oligonucleotide 200 nM
# [6] = test system: FMycT (c-Myc promoter G4); assay: FRET melting assay, FMycT; type: binding; details: oligonucleotide 200 nM
# [7] = test system: F10T (hairpin duplex DNA); type: binding; details: oligonucleotide 200 nM
# [8] = test system: F21T K+ (human telomeric G-quadruplex, potassium buffer); type: binding; details: oligonucleotide 200 nM
# MRC-5 cells [9] = test system: MRC-5 cells; parameters: method as in number not given; details: footnote c 'From ref', ref number not given; cited from earlier work
# [10] = test system: Fmt6363T (DNA, G4) AGGGACGCGGGCGGGGGATATAGGGT; assay: FRET melting; details: K+ (10 mM KCl), 90 mM LiCl; 10 mM Li cacodylate; compound 10 µM, DNA 200 nM
# [11] = test system: FEbr1T (DNA, G4) GGGCAGGGGGTGATGGGGAGGAGCCAGGG; assay: FRET melting; details: K+ (10 mM KCl), 90 mM LiCl; 10 mM Li cacodylate; compound 10 µM, DNA 200 nM
# [12] = test system: promastigote form of L. major; assay: MTT-based antileishmanial assay, promastigotes; type: cell-based, Leishmania major; details: Leishmania major; promastigotes, 72 h, MTT; error as σ
# Experimental: The antileishmanial activity of the compounds against the promastigote form of L. major, the […] was determined using an MTT-based assay (Sigma-Aldrich). Stock solutions of the compounds were prepared in DMSO with the final DMSO percentage in each well maintained below 1%. 4 × 10^6 parasites per mL were incubated at 28 °C in 96-well plates (50 μL/well) either alone or in the presence of increasing concentrations of compounds DMSO for 72 h. After the incubation period, 10 μL of MTT (5 mg/mL) was added to each well, and the parasites were incubated for 4 h at 28 °C. Subsequently, cell lysis was performed using 50 μL/well of 20% SDS. […] Data were presented as the average of at least three independent measurements, each conducted under triplicate conditions. […] “single marker” […] S7
# BSF T. brucei parasites = assay: CellTiter-Glo luminescent cell viability assay; type: cell-based; details: Trypanosoma brucei, 72 h, read-out: IC50 T. brucei (CellTiter-Glo)
# Experimental: Ten μL portion of Cell Titer Glo was then added to every well, and after 10 min of incubation at room temperature, the luminescence of the plates was recorded using the Infinite F200 plate reader (TECAN Austria, GmbH). […] Presented data are the mean value of three independent measurements, all of them conducted under triplicate conditions.
# other G4 sequences = assay: FRET melting assay, other examined G4s; type: binding; details: ligand 10 μM; range over the remaining G4s
# Experimental: The stabilization of G4 structures was initially evaluated by using the Förster resonance energy transfer (FRET) melting assay. This analysis evaluated the binding of the compounds against four G4-forming oligonucleotides and a hairpin duplex sequence to determine both G4:duplex and G4:G4 selectivity.
# FRET melting assays were performed to assess ligand affinity for duplex and G-quadruplex DNA.
# proximity of the donor and quencher result in no observed fluorescence from FAM, since energy
# is transferred non-radiatively to TAMRA by FRET. As the temperature is raised and the secondary
# structure denatures, the fluorophores move further apart and the fluorescence signal increases.
# From the resulting curve, the characteristic melting temperature (Tmax, also referred to as Tm) is
# defined as the temperature which corresponds to the maxima of the first derivative of the
# normalised fluorescence signal. The change in melting temperature (ΔTm) induced by the presence
# of a small molecule ligand provides an indication of the ligand’s ability to stabilise the DNA
# co-workers 12 on an AriaMx qPCR instrument.
# min, before heating at 1 °C/min to 96 °C in 1 °C increments, followed by monitoring the
# fluorescence output at each increment for 1 min. The fluorescence emission of FAM was followed
# The final concentration of oligonucleotide was 200 nM in all cases. For F21T in Na+ conditions, […]
# [13] = test system: F21T (DNA, G4) GGGTTAGGGTTAGGGTTAGGG; assay: FRET melting; details: K+ (10 mM KCl), 90 mM LiCl; 10 mM Li cacodylate; compound 10 µM, DNA 200 nM
# [14] = test system: bloodstream form of T. brucei; assay: alamarBlue (resazurin) antitrypanosomal assay; type: cell-based, Trypanosoma brucei; details: Trypanosoma brucei; bloodstream form, 72 h, alamarBlue/resazurin; error as σ
# MRC-5 cells [15] = assay: alamarBlue cytotoxicity assay, MRC-5; type: cell-based; details: MRC5, human lung fibroblasts, 72 h
# [16] = test system: F10T (DNA, hairpin, hexaethylene glycol (HEG, [(-CH2CH2O-)6]) linker between 10 and 11) TATAGCTATATATAGCTATA; assay: FRET melting; details: K+ (10 mM KCl), 90 mM LiCl; 10 mM Li cacodylate; compound 10 µM, DNA 200 nM
# [17] = test system: telo23 (DNA, G4) TAGGGTTAGGGTTAGGGTTAGGG; assay: CD titration; details: K+ (100 mM potassium phosphate); pH 7.4, 20 °C, DNA 5 µM
# [18] = test system: intracellular amastigote form of L. major; assay: Luciferase assay, intracellular amastigotes in THP-1 macrophages; type: cell-based, Leishmania major; details: Leishmania major
# Experimental: The antileishmanial activity of the compounds against the intracellular form of L. major was evaluated using the Luciferase Assay System kit from Promega. THP-1 cells were seeded at a density of 3 × 10^5 cells/mL in 96-well plates (100 μL/well) and treated with 20 ng/mL PMA (phorbol 12-myristate 13-acetate, Sigma) for 48 h to induce differentiation. Postdifferentiation, the cells were washed, and fresh medium was added (100 μL/well) before being reincubated. Following an additional 24 h, the wells were washed, and 50 μL of L. major parasites at a density of 1.5 × 10^6 parasites/mL (suspended in RPMI-1640 medium 5% hiFBS and 5% penicillin/streptomycin) were added to the wells. The plates were then incubated at 35 °C in 5% CO2. After 24 h, the wells were washed three times with PBS, and fresh medium with increasing concentrations of compounds was added (100 μL/well). After another 72 h of incubation, the cells were then treated with 25 μL of lysis buffer and stored at −80 °C. Following 24 h, 25 μL of luciferase enzyme substrate was added to each well, and the luciferase activity of the amastigotes was determined using a TECAN Infinite F200 microplate reader. […] Data were presented as the average of at least three independent measurements, each conducted under triplicate conditions.
# Parasite and cell culturing […]
# Leishmania major (MHOM/IL/80/Friedlin) promastigotes and its derivative luminescent strain L. major LucRE9 with the luciferase gene integrated into the parasite genome (LUC) were cultured at 28 °C, 5 % CO2 in modified RPMI-1640 medium (Invitrogen, Carlsbad, CA) supplemented with 10 % hiFBS6, including […] blasticidin in the LucRE9 strain. 7 Parasites were maintained in culture in their […] growth phase (below 2 million T. brucei parasites per mL, ,10 million L. major parasites per mL for promastigotes experiments), and in the stationary phase , 20 million L. major parasites per mL for THP -1 infection experiments.
# MRC-5 cell line (human lung fibroblast) was grown in monolayer at 37 °C, 5 % CO2 in DMEM medium (1 g/L glucose) supplemented with 10% hiFBS, 100 U/mL penicillin, […] streptomycin and 2 mM L-glutamine.8
# THP-1 cells (human monocytic cell line) were maintained in RPMI-1640 medium supplemented with 10% heat-inactivated fetal bovine serum (hiFBS) and 5 % penicillin/streptomycin (37 °C, 5 % CO2, and 100 % humidity). […]
# HeLa cells = assay: alamarBlue antiproliferative assay, HeLa; type: cell-based, human; details: Homo sapiens, HeLa; 72 h, alamarBlue
# HT-29 cells = assay: alamarBlue antiproliferative assay, HT-29; type: cell-based, human; details: Homo sapiens, HT-29; 72 h, alamarBlue
# [19] = test system: Ebr1 (DNA, G4) GGGCAGGGGGTGATGGGGAGGAGCCAGGG; assay: CD titration; details: K+ (100 mM potassium phosphate); pH 7.4, 20 °C, DNA 5 µM
# mt6363 G4 = assay: UV-vis absorbance titration; type: binding, human; details: ligand 10 μM, 100 mM potassium phosphate, pH 7.4; numbers only in Figure 6
# Experimental: Furthermore, the analysis confirmed its selectivity for G4 structures over duplex DNA.
# 6 (A) Equilibrium binding constants calculated for compounds 2b and 2c with several G-quadruplexes (telo23, Ebr1, and mt6363) and a duplex DNA (ds26) sequence. (B) UV–vis titration of 2b with telo23, mt6363, Ebr1, and ds26. Buffer = 100 mM potassium phosphate, pH 7.4. Ligand concentration: 10 μM. […]
# oligonucleotides were at a concentration of 5 µM in potassium phosphate buffer (100 mM, pH 7.4). Data processing was carried out using Python and Prism 10 (GraphPad Software) with a 4-point second order smoothing polynomial applied to all spectra. Observed ellipticities were converted to molar ellipticity.
# Absorbance spectra were recorded on a Cary 60 UV-Visible spectrophotometer using a room-light immune fibre optic probe with 10 mm path length. The UV-Vis spectra were recorded between 700 – 300 nm and were corrected for background and buffer absorbance.
# In the titrations, the concentration of ligand was fixed at 10 µM in an initial volume of 500 µL in potassium phosphate buffer (100 mM, pH 7.4). […]
# Table S1. Synthesis and photophysical data in acetonitrile solution (absorption, λabs, fluorescence emission maxima, λfluo, molar absorptivity, Ɛ and fluorescence quantum yield, ɸF) for the 2-ethenyl-benzothiazolium derivatives 2a-j. […]
# [20] = test system: mt6363 (DNA, G4) AGGGACGCGGGCGGGGGATATAGGGT; assay: CD titration; details: K+ (100 mM potassium phosphate); pH 7.4, 20 °C, DNA 5 µM
# THP-1 cells = assay: alamarBlue cytotoxicity assay, PMA-differentiated THP-1; type: cell-based, human; details: Homo sapiens, PMA-differentiated THP-1, 72 h
smiles,measurement,setting,value
"C[n+]1ccc(-c2c3nc(c(-c4cc[n+](C)cc4)c4ccc([nH]4)c(-c4cc[n+](C)cc4)c4ccc([nH]4)c(-c4cc[n+](C)cc4)c4nc2C=C4)C=C3)cc1 [TMPyP4, reference compound]",IC50,[1],20800 ± 4860 nM
same,IC50,[2],> 10000 nM
same,ΔTm Fmt6363T,[3]; positive control at 1 μM,7.1 ± 0.4 °C
same,ΔTm FEbr1T,[4]; positive control at 1 μM,12.4 ± 0.9 °C
same,ΔTm F21T Na+,[5]; positive control at 1 μM,10.4 ± 0.4 °C
same,ΔTm FMycT,[6]; positive control at 1 μM,12.6 ± 1.1 °C
same,ΔTm F10T,[7]; positive control at 1 μM,1.7 ± 0.1 °C
same,ΔTm F21T K+,[8]; positive control at 1 μM,16.4 ± 0.4 °C
same,IC50,MRC-5 cells [9],> 25000 nM
"Cc1ccc2c(c1)sc(-c1ccc(N(C)C)cc1)[n+]2C [ThT, Thioflavin T, reference compound]",ΔTm,[10],2.9 ± 0.4 °C
same,ΔTm,[11],4.5 ± 0.7 °C
same,ΔTm Fmt6363T,"[3]; ligand 10 μM, 10 mM KCl",2.9 ± 0.4 °C
same,ΔTm FEbr1T,"[4]; ligand 10 μM, 10 mM KCl",4.5 ± 0.7 °C
same,ΔTm F21T Na+,"[5]; ligand 10 μM, 100 mM NaCl",1.4 ± 0.2 °C
same,ΔTm FMycT,"[6]; ligand 10 μM, 1 mM KCl",15.0 °C
same,ΔTm F10T,"[7]; ligand 10 μM, 10 mM KCl",0.1 ± 0.1 °C
same,IC50,[12],23 ± 0.2 nM
same,IC50,"BSF T. brucei parasites; BSF parasites, luminescence",62 ± 3 nM
same,ΔTm F21T K+,"[8]; ligand 10 μM, 10 mM KCl",5.5 ± 0.2 °C
same,ΔTm for the other examined G4 sequences,other G4 sequences,1.4–5.5 °C
same,ΔTm,[13],5.5 ± 0.2 °C
same,IC50,[14],4.7 ± 0.3 nM
same,IC50,MRC-5 cells [15],183 ± 38 nM
same,ΔTm,[16],0.1 ± 0.1 °C
CN(C)c1ccc(/C=C/c2sc3ccccc3[n+]2C)cc1.[I-] [compound 2b],ΔTm,[10],19.8 ± 0.4 °C
same,ΔTm Fmt6363T,"[3]; ligand 10 μM, 10 mM KCl",19.8 °C
same,ΔTm FEbr1T,"[4]; ligand 10 μM, 10 mM KCl",13.1 °C
same,ΔTm F21T Na+,"[5]; ligand 10 μM, 100 mM NaCl",9.1 ± 0.3 °C
same,binding,[17],yes
same,ΔTm FMycT,"[6]; ligand 10 μM, 1 mM KCl",8.6 ± 0.9 °C
same,IC50,"[18]; THP-1, intracellular amastigotes",0.48 nM
same,IC50,"[18]; intracellular amastigotes in THP-1 macrophages, 72 h, luciferase",0.484 ± 0.617 nM
same,ΔTm F10T,"[7]; ligand 10 μM, 10 mM KCl",2.3 ± 0.2 °C
same,IC50,HeLa cells,9280 ± 770 nM
same,IC50,BSF T. brucei parasites,0.55 ± 0.23 nM
same,ΔTm F21T K+,"[8]; ligand 10 μM, 10 mM KCl",13.1 ± 0.5 °C
same,IC50,[14],0.019 ± 0.0053 nM
same,IC50,HT-29 cells,6560 ± 490 nM
same,binding,[19],yes
same,binding affinity (equilibrium binding constant),mt6363 G4,higher affinity for the mt6363 G4 structure compared with the other G4 sequences
same,ΔTm,[16],2.3 ± 0.2 °C
same,binding,[20],yes
same,IC50,THP-1 cells,480 ± 110 nM
